Results reported in US8268863B2 (priority 2007, dated 2012).

Key:
[1] = molecular target: T1, human mu opioid receptor (Homo sapiens, UniProt P35372); assay: Human mu GTP-Eu nucleotide exchange assay (agonist mediated activation); assay type: biochemical; conditions: bound GTP-Eu relative to DAMGO (IA=100), CHO-K1 membranes expressing human mu opioid receptor; read-out: intrinsic activity (IA)
T1 construct: host or cells: CHO-K1

[2] = molecular target: T1, human mu opioid receptor; assay: Radioligand binding assay, human mu opioid receptor; conditions: [3H]-Diprenorphine displacement, membranes of CHO-K1 cells; read-out: pKi at the human mu opioid receptor (converted)

T1 sequence (P35372 whole entry): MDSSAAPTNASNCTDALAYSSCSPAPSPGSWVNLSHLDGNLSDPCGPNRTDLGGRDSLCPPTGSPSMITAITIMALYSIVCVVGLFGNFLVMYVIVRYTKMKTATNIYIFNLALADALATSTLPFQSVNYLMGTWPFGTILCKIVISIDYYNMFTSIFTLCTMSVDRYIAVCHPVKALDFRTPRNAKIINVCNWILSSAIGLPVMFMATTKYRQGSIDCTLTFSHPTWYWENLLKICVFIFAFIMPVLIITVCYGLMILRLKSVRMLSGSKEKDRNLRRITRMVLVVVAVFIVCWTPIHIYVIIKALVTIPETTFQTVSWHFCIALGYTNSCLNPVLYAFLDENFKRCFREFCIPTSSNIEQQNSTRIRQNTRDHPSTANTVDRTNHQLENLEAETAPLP

SMILES | Emax [1] | Ki [2]
CC(C)C[C@H](NC(=O)C(Cc1ccccc1)CN1[C@@H]2CC[C@H]1C[C@@H](c1cccc(C(N)=O)c1)C2)C(N)=O (mixture of isomers) [Example 6, 3-endo-{8-[(S)-2-(S)-1-carbamoyl-3-methyl-butylcarbamoyl)-3-phenylpropyl]-8-azabicyclo[3.2.1]oct-3-yl}benzamide and 3-endo-{8-[(R)-2-((S)-1-carbamoyl-3-methylbutylcarbamoyl)-3-phenyl-propyl]-8-azabicyclo[3.2.1]oct-3-yl}benzamide] | -7% | 0.0631 nM
O=C(NC(CC1CCCCC1)CN1[C@@H]2CC[C@H]1C[C@@H](c1cccc(O)c1)C2)C1CCCCC1 (stereo partly drawn) [Example 1, cyclohexanecarboxylic acid {1-cyclohexylmethyl-2-[3-endo-(3-hydroxyphenyl)-8-azabicyclo[3.2.1]oct-8-yl]-ethyl}amide] | -9% | 0.0631 nM
O=C(CO)NC(CC1CCCCC1)CN1[C@@H]2CC[C@H]1C[C@@H](c1cccc(O)c1)C2 (stereo partly drawn) [Example 2, N-{1-cyclohexylmethyl-2-[3-endo-(3-hydroxy-phenyl)-8-azabicyclo[3.2.1]oct-8-yl]ethyl}-2-hydroxyacetamide] | 24% | 0.0631 nM
NC(=O)CCC(=O)NC(CC1CCCCC1)CN1[C@@H]2CC[C@H]1C[C@@H](c1cccc(O)c1)C2 (stereo partly drawn) [Example 3, N-{1-cyclohexylmethyl-2-[3-endo-(3-hydroxy-phenyl)-8-azabicyclo[3.2.1]oct-8-yl]ethyl}succinamide] | 3% | 0.126 nM
O=C(NCC1CCCCC1)NC(CC1CCCCC1)CN1[C@@H]2CC[C@H]1C[C@@H](c1cccc(O)c1)C2 (stereo partly drawn) [Example 4, 1-cyclohexylmethyl-3-{1-cyclohexylmethyl-2-[3-endo-(3-hydroxyphenyl)-8-azabicyclo[3.2.1]oct-8-yl]ethyl}urea] | -3% | 0.1 nM
Cc1ccc(S(=O)(=O)NC(CC2CCCCC2)CN2[C@@H]3CC[C@H]2C[C@@H](c2cccc(O)c2)C3)cc1 (stereo partly drawn) [Example 5, N-{1-cyclohexylmethyl-2-[3-endo-(3-hydroxy-phenyl)-8-azabicyclo[3.2.1]oct-8-yl]ethyl}-4-methyl-benzenesulfonamide] | 2% | 0.794 nM
O=C(NC(CCc1ccccc1)CN1[C@@H]2CC[C@H]1C[C@@H](c1cccc(O)c1)C2)c1ccccc1 (some centres unmarked) [Example 76] | ≥ 30% | 
CS(=O)(=O)NC(CCN1[C@@H]2CC[C@H]1C[C@@H](c1cccc(C(N)=O)c1)C2)c1ccccc1 (some centres unmarked) [Example 104] | ≥ 30% | 
